From patent publication US9987209B2, “Multi-functional composition for cosmetic formulations” (Arch Chemicals, Inc., priority 2013, dated 2018)
In brackets after ≈: the same amount, converted by molar mass.

Tests used:
Assay in all cases: minimum inhibitory concentration (MIC), microtiter broth dilution
Type in all cases: cell-based
[1] = tested on: Aspergillus brasiliensis ATCC 16404; conditions: Table 2, ppm per product, stock solutions in alcohol, 28° C. for 5 days; for MIC: Aspergillus brasiliensis, ATCC16404, 120 h
Method: (§1) The following compositions were formulated and tested for antimicrobial efficacy. In particular, the compositions were tested for minimum inhibitory concentration (MIC).
(§2) Staphylococcus aureus ATCC 6538, Pseudomonas aeruginosa ATCC 9027, Klebsiella pneumonia ATCC 4352, Burkholderia cepacia ATCC 25416, Enterobacter gergoviae ATCC 33028, Candida albicans ATCC 10231, Aspergillus brasiliensis ATCC 16404, and 2 Penicillium sp. were revived from refrigerated slants and plated on TSA plates for bacteria, SDA plates for yeast, and PDA plates for mold. The broth media used for MIC determination on microtiter plates were TSB for bacteria and SDB for fungi.
(§3) All prepared solutions were considered as products and were tested at the concentration starting at 10,000 ppm per product. Samples were diluted with 2-fold serial dilution into the appropriate broth media on microtiter plates. The bacterial inoculum at concentration of 1×10^6 CFUs/mL and fungal inoculum at concentration of 1×10^5 cells or spores/mL were suspended in regular strength broth and added to the wells in 1:1 ratio to the sample/medium mixtures on microtiter plates. The final concentration of bacteria was 5×10^5 CFUs/mL; the final concentration of fungi was 5×10^4 cells or spores/mL. Bacterial plates were incubated at 35° C. for 2 days and fungal plates were incubated at 28° C. for 5 days before reading results.
(§4) In this example, two compositions made according to the present disclosure were tested for minimum inhibitory concentration (MIC) as described in Example No. 1. In this example, the first sample tested was the same as Sample No. 4 described above in Example No. 1. The second sample (Sample No. 8) was identical to Sample No. 4 except 1,3 propanediol was replaced with 1,5 pentanediol. […]

[2] = tested on: Candida albicans ATCC 10231; conditions: Table 2, ppm per product, stock solutions in alcohol, 28° C. for 5 days; for MIC: Candida albicans, ATCC10231, 120 h
Method: as §1, §2, §3, §4

[3] = tested on: Pseudomonas aeruginosa ATCC 9027; conditions: Table 2, ppm per product, stock solutions in alcohol, 35° C. for 2 days; for MIC: Pseudomonas aeruginosa, ATCC9027, 48 h, read-out: minimum inhibitory concentration (MIC), Ps. aeruginosa
Method: as §1, §2, §3, §4

[4] = tested on: Staphylococcus aureus ATCC 6538; conditions: Table 2, ppm per product, stock solutions in alcohol, 35° C. for 2 days; for MIC: Staphylococcus aureus, ATCC6538, 48 h, read-out: minimum inhibitory concentration (MIC), S. aureus
Method: as §1, §2, §3, §4

[5] = tested on: Penicillium sp.; conditions: Table 2, ppm per product, stock solutions in alcohol, 28° C. for 5 days; for MIC: Penicillium, 120 h
Method: as §1, §2, §3

[6] = tested on: Klebsiella pneumonia ATCC 4352; conditions: Table 2, ppm per product, stock solutions in alcohol, 35° C. for 2 days; for MIC: Klebsiella pneumoniae, ATCC4352, 48 h, read-out: minimum inhibitory concentration (MIC), K. pneumonia
Method: as §1, §2, §3

[7] = tested on: Burkholderia cepacia ATCC 25416; conditions: Table 2, ppm per product, stock solutions in alcohol, 35° C. for 2 days; for MIC: Burkholderia cepacia, ATCC25416, 48 h, read-out: minimum inhibitory concentration (MIC), B. cepacia
Method: as §1, §2, §3

[8] = tested on: Enterobacter gergoviae ATCC 33028; conditions: Table 2, ppm per product, stock solutions in alcohol, 35° C. for 2 days; for MIC: Pluralibacter gergoviae, ATCC33028, 48 h, read-out: minimum inhibitory concentration (MIC), E. gergoviae
Method: as §1, §2, §3

MIC [1]	MIC [2]	MIC [3]	MIC [4]	MIC [5]	MIC [6]	MIC [7]	MIC [8]	Structure (SMILES)	minimum inhibitory concentration (MIC), A. brasiliensis [1]	minimum inhibitory concentration (MIC), C. albicans [2]	minimum inhibitory concentration (MIC), Ps. aeruginosa [3]	minimum inhibitory concentration (MIC), S. aureus [4]	minimum inhibitory concentration (MIC), Penicillium sp. [5]	minimum inhibitory concentration (MIC), K. pneumonia [6]	minimum inhibitory concentration (MIC), B. cepacia [7]	minimum inhibitory concentration (MIC), E. gergoviae [8]
> 10000 µg/mL	2500 µg/mL (≈ 17.3 mM)	10000 µg/mL (≈ 69.3 mM)	> 10000 µg/mL	7500 µg/mL (≈ 52 mM)	> 10000 µg/mL	10000 µg/mL (≈ 69.3 mM)	> 10000 µg/mL	CCCCCCCC(=O)O [2.5% Octanoic Acid, Octanoic Acid]								
5000 µg/mL (≈ 32.9 mM)	2500 µg/mL (≈ 16.4 mM)	5000 µg/mL (≈ 32.9 mM)	10000 µg/mL (≈ 65.7 mM)	2500 µg/mL (≈ 16.4 mM)	10000 µg/mL (≈ 65.7 mM)	5000 µg/mL (≈ 32.9 mM)	10000 µg/mL (≈ 65.7 mM)	COc1cc(C=O)ccc1O [20% Vanillin, Vanillin]								
								OCCCO [50% 1,3-Propanediol, 1,3-Propanediol]	>10,000 ppm	10,000 ppm	10,000 ppm	>10,000 ppm	>10,000 ppm	>10,000 ppm	10,000 ppm	>10,000 ppm
